Laboratory results taken from article PMC11487390, “Design and Synthesis of 1,3-Diarylpyrazoles and Investigation of Their Cytotoxicity and Antiparasitic Profile” (International Journal of Molecular Sciences, 2024).
Where a name gives a salt, the structure may show the parent alone. Read-outs that look alike come from different tables or passages of the source.

Tests used:
[1] = Cytotoxicity assay, MRC-5SV2 cells, resazurin, 3 days; type: cell-based; details: human, MRC-5SV2 human lung fibroblast cells, MRC-5 cells, highest concentration 64 µM
Experimental: (§1) The series of final products (13–69) was investigated in vitro on the human fetal lung fibroblast cell line MRC-5 (Table 1) to assess cytotoxicity toward normal (i.e., non-malignant) human cells. […] As explained earlier, these are important pathogens for humans or cattle (T. b. brucei) and a persistent need for new therapeutics exists for these parasites. As a part of the antiparasitic tests, cytotoxicity against primary mouse macrophages (PMMs) was also evaluated. These murine cells serve as host cells for parasites in the L. infantum assay. Therefore, the murine macrophage assay not only offers additional cytotoxicological insight but is also essential to interpreting the readout of the L. infantum assay.
(§2) The MRC-5SV2 human lung fibroblast cell line was cultured in MEM + Earle’s salts-medium, supplemented with 2 mM L-glutamine, 16.5 mM NaHCO3, and 5% inactivated fetal calf serum. For evaluating the antileishmanial activity, the L. infantum MHOM/MA(BE)/67 strain was used. This strain was maintained in a Golden hamster (Mesocricetus auratus). Amastigotes were collected from the spleen of an infected donor hamster using differential centrifugation. Primary peritoneal mouse macrophages were used as host cells and were collected 2 days after peritoneal stimulation with a 2% potato starch suspension. For the intracellular T. cruzi assays, the Tulahuen CL2 strain was used that expresses β-galactosidase. The strain was maintained in MRC-5SV2 cells in MEM medium. The T. b. brucei Squib 427 strain or T. b. rhodesiense STIB-900 strain was used for screening against the extracellular African trypanosomes. The strains were maintained in Hirumi’s Modified Iscove’s medium-9 (HMI-9), supplemented with 10% inactivated fetal calf serum. All cultures and assays were performed at 37 °C with 5% CO2.
(§3) Compound stock solutions were prepared in 100% DMSO at 20 mM. The compounds were serially pre-diluted by robotic plate production (4-fold) in DMSO followed by a further (intermediate) dilution in demineralized water to assure a final in-test DMSO concentration of <1%. Identical test plates containing 10 µL of the different concentrations of each compound were produced for the different assays. For the cytotoxicity assays, 5 concentrations per compound were tested (64–16–4–1–0.25 µM). For the parasitic assays, 10 concentrations per compound were tested, ranging from 64 µM to 0.2 nM.
Assays were performed in sterile 96-well microtiter plates, each well containing 10 µL of the watery compound dilutions together with 190 µL of MRC-5SV2 inoculum (1.5 × 10^5 cells/mL). Cell growth was compared to untreated control wells (100% cell growth) and medium-control wells (0% cell growth). After 3 days incubation, MRC-5 viability was assessed fluorimetrically after addition of 50 μL resazurin per well (final concentration of 10 µg mL^−1). After 4 h at 37 °C, fluorescence was measured (λex 550 nm, λem 590 nm). The results were expressed as % reduction in cell growth/viability compared to positive (100% growth–0% inhibition) and negative (0% growth–100% inhibition) control wells from which EC50 values (50% effective concentrations) were derived using an excel macro that calculates the interpolation of the concentrations corresponding to the flanking points, just above and just below 50% inhibition.

[2] = tested on: primary mouse macrophages (PMMs); assay: Cytotoxicity against primary peritoneal mouse macrophages (PMM); type: cell-based; details: Macrophage
Experimental: as §1, §2
(§4) Primary peritoneal mouse macrophages (PMMs) were prepared in RPMI-1640 medium, supplemented with 2 mM L-glutamine, 16.5 mM NaHCO3, and 5% inactivated fetal calf serum. The macrophages are infected after 48 h with spleen-derived L. infantum amastigotes (3 × 10^4 PMM + 4.5 × 10^5 parasites/well). The compounds were added after 2 h of infection. After 5 days incubation, parasite burdens (mean number of amastigotes/macrophage) were assessed microscopically after staining with a 10% Giemsa solution and EC50 values were calculated.

[3] = tested on: Trypanosoma cruzi Tulahuen CL2 strain; assay: Intracellular T. cruzi assay in MRC-5 cells (β-galactosidase/CPRG, 7 days); type: cell-based; details: intracellular in MRC-5 cells
Experimental: as §2, §3
MRC-5 cells were infected in 96-well plates using a harvested T. cruzi inoculum (4 × 10^3 MRC-5 cells/well + 4 × 10^4 parasites/well) and exposed to 10 µL of the compound dilutions (200 µL/well total volume). Parasite growth determined after 7 days of incubation and compared to untreated infected controls following the addition of the substrate CPRG (chlorophenolred ß-D-galactopyranoside): 50 µL/well of a stock solution containing 15.2 mg CPRG + 250 µL Nonidet in 100 mL PBS. The absorbance was measured spectrophotometrically at 540 nm after 4 h incubation at 37 °C and EC50 values were calculated.

[4] = tested on: L. infantum MHOM/MA(BE)/67 strain; assay: L. infantum intracellular amastigote assay in PMM (Giemsa, 5 days); type: cell-based, Leishmania infantum
Experimental: as §2, §3, §4

[5] = tested on: T. b. brucei Squib 427 strain; assay: T. b. brucei growth assay (resazurin, 3 days); type: cell-based, Trypanosoma brucei brucei
Experimental: as §2, §3
(§5) Parasite suspensions (1.5 × 10^4 T. b. brucei/well or 4 × 10^3 T. b. rhodesiense/well) in HMI-9 medium were exposed in a total volume of 200 µL to 10 µL of the compound dilutions Parasite growth was assessed fluorimetrically after 3 days of incubation by the addition of 50 µL resazurin per well. After 6 h (T. b. rhodesiense) or 24 h (T. b. brucei) at 37 °C, fluorescence was measured (λex 550 nm, λem 590 nm), from which viability and EC50 values could be determined.

[6] = tested on: T. b. rhodesiense STIB-900 strain; assay: T. b. rhodesiense growth assay (resazurin, 3 days); type: cell-based, Trypanosoma brucei rhodesiense
Experimental: as §2, §3, §5

[7] = Trypanosoma cruzi, TULAHUEN, MRC5, 168 h
[8] = Leishmania infantum, 120 h, amastigotes in PMM, 5 days, read-out: L. inf. (EC50)
[9] = Trypanosoma brucei, 72 h, 3 days, read-out: T. b. bruc. (EC50)
[10] = Trypanosoma brucei, RHODESIENSE, 72 h, 3 days, read-out: T. b. rhod. (EC50)
[11] = amastigotes in PMM, 5 days, read-out: L. inf. (EC50)
[12] = Leishmania infantum, 120 h, read-out: L. inf. (EC50, µM), amastigotes in PMM, 5 days
[13] = Trypanosoma brucei, 72 h, read-out: T. b. bruc. (EC50, µM), 3 days
[14] = Trypanosoma brucei, RHODESIENSE, 72 h, read-out: T. b. rhod. (EC50, µM), 3 days

SMILES: c1ccc(NCc2cn(-c3ccccc3)nc2-c2ccc3c(c2)OCCO3)cc1 [Compound 13, N-((3-(2,3-dihydrobenzo[b][1,4]dioxin-6-yl)-1-phenyl-1H-pyrazol-4-yl)methyl)aniline]
- EC50 at 3 days [1]: > 64 µM
- EC50 [2]: > 64 µM
- EC50 [3, 7]: 2.23 µM
- EC50 [4, 8]: 10.8 µM
- EC50 [5, 9]: 31.4 µM
- EC50 [6, 10]: 7.32 µM

SMILES: Fc1ccc(NCc2cn(-c3ccccc3)nc2-c2ccc3c(c2)OCCO3)cc1 [Compound 14, N-((3-(2,3-dihydrobenzo[b][1,4]dioxin-6-yl)-1-phenyl-1H-pyrazol-4-yl)methyl)-4-fluoroaniline]
- EC50 at 3 days [1]: > 64 µM
- EC50 [2]: > 64 µM
- EC50 [4, 8]: < 10 µM
- EC50 [4, 11]: 6.96 µM
- EC50 ([5]; 3 days, read-out: T. b. bruc. (EC50)): 8.18 µM
- EC50 [5, 9]: < 10 µM
- EC50 ([6]; 3 days, read-out: T. b. rhod. (EC50)): 6.35 µM
- EC50 [6, 10]: < 10 µM

SMILES: CNC(=O)c1cc(Oc2ccc(NC(=O)c3cn(-c4ccccc4)nc3-c3ccc4c(c3)OCCO4)cc2)ccn1 [Compound 38, 4-(4-(3-(2,3-dihydrobenzo[b][1,4]dioxin-6-yl)-1-phenyl-1H-pyrazole-4-carboxamido)phenoxy)-N-methylpicolinamide]
- EC50 at 3 days [1]: 6.35 µM
- EC50 [2]: > 64 µM
- EC50 [3, 7]: > 64 µM
- EC50 [4, 8]: > 64 µM
- EC50 [5, 9]: 8 µM
- EC50 [6, 10]: 1.75 µM

SMILES: O=C(NCc1ccc(F)cc1)c1cn(-c2ccccc2)nc1-c1ccc2c(c1)OCCO2 [Compound 33, 3-(2,3-dihydrobenzo[b][1,4]dioxin-6-yl)-N-(4-fluorobenzyl)-1-phenyl-1H-pyrazole-4-carboxamide]
- EC50 at 3 days [1]: 64 µM
- EC50 [2]: > 64 µM
- EC50 [3, 7]: > 64 µM
- EC50 [4, 8]: 8.3 µM
- EC50 [4, 11]: 9.51 µM
- EC50 [5, 9]: > 64 µM
- EC50 [6, 10]: 4.23 µM

SMILES: O=C(NCCc1cccnc1)c1cn(-c2ccccc2)nc1-c1ccc2c(c1)OCCO2 [Compound 36, 3-(2,3-dihydrobenzo[b][1,4]dioxin-6-yl)-1-phenyl-N-(2-(pyridin-3-yl)ethyl)-1H-pyrazole-4-carboxamide]
- EC50 at 3 days [1]: 45 µM
- EC50 [2]: > 64 µM
- EC50 [3, 7]: 4.56 µM
- EC50 [4, 8]: 45.2 µM
- EC50 [5, 9]: 19.4 µM
- EC50 [6, 10]: 4 µM

SMILES: c1ccc(-n2cc(CNCCN3CCOCC3)c(-c3ccc4c(c3)OCCO4)n2)cc1 [Compound 28, N-((3-(2,3-dihydrobenzo[b][1,4]dioxin-6-yl)-1-phenyl-1H-pyrazol-4-yl)methyl)-2-morpholinoethan-1-amine dihydrochloride]
- EC50 at 3 days [1]: 29.4 µM
- EC50 [2]: 32 µM
- EC50 [3, 7]: 30.3 µM
- EC50 [4, 12]: 32.5 µM
- EC50 [5, 13]: 7.08 µM
- EC50 [6, 14]: 6.27 µM

SMILES: O=C(c1cn(-c2ccccc2)nc1-c1ccc2c(c1)OCCO2)N1CCOCC1 [Compound 40, (3-(2,3-dihydrobenzo[b][1,4]dioxin-6-yl)-1-phenyl-1H-pyrazol-4-yl)(morpholino)methanone]
- EC50 at 3 days [1]: > 64 µM
- EC50 [2]: > 64 µM
- EC50 [3, 7]: > 64 µM
- EC50 [4, 8]: > 64 µM
- EC50 [5, 9]: > 64 µM
- EC50 [6, 10]: > 64 µM

SMILES: CNC(=O)c1cc(Oc2ccc(NCc3cn(-c4ccccc4)nc3-c3ccc4c(c3)OCCO4)cc2)ccn1 [Compound 22, 4-(4-(((3-(2,3-dihydrobenzo[b][1,4]dioxin-6-yl)-1-phenyl-1H-pyrazol-4-yl)methyl)amino)phenoxy)-N-methylpicolinamide]
- EC50 at 3 days [1]: > 64 µM
- EC50 [2]: > 64 µM
- EC50 [3, 7]: > 64 µM
- EC50 [4, 8]: > 64 µM
- EC50 [5, 9]: 2.22 µM
- selectivity index ([6]; T. b. rhodesiense versus cytotoxicity): 86
- EC50 [6, 10]: 0.74 µM

SMILES: O=C(NCCc1ccncc1)c1cn(-c2ccccc2)nc1-c1ccc2c(c1)OCCO2 [Compound 35, 3-(2,3-dihydrobenzo[b][1,4]dioxin-6-yl)-1-phenyl-N-(2-(pyridin-4-yl)ethyl)-1H-pyrazole-4-carboxamide]
- EC50 at 3 days [1]: > 64 µM
- EC50 [2]: > 64 µM
- EC50 [3, 7]: 4.33 µM
- EC50 [4, 8]: > 64 µM
- EC50 [5, 9]: 23.2 µM
- EC50 [6, 10]: 1.28 µM

SMILES: O=C(NCCc1ccccn1)c1cn(-c2ccccc2)nc1-c1ccc2c(c1)OCCO2 [Compound 37, 3-(2,3-dihydrobenzo[b][1,4]dioxin-6-yl)-1-phenyl-N-(2-(pyridin-2-yl)ethyl)-1H-pyrazole-4-carboxamide]
- EC50 at 3 days [1]: 32 µM
- EC50 [2]: > 64 µM
- EC50 [3, 7]: 13.1 µM
- EC50 [4, 8]: > 64 µM
- EC50 [5, 9]: 20.2 µM
- EC50 [6, 10]: 2.96 µM

SMILES: O=C(c1cn(-c2ccccc2)nc1-c1ccc2c(c1)OCCO2)N1CCCC1 [Compound 39, (3-(2,3-dihydrobenzo[b][1,4]dioxin-6-yl)-1-phenyl-1H-pyrazol-4-yl)(pyrrolidin-1-yl)methanone]
- EC50 at 3 days [1]: 23.2 µM
- EC50 [2]: > 64 µM
- EC50 [3, 7]: 8.8 µM
- EC50 [4, 8]: 38.1 µM
- EC50 [5, 9]: > 64 µM
- EC50 [6, 10]: 37.6 µM

SMILES: c1ccc(-n2cc(CNCCc3ccccn3)c(-c3ccc4c(c3)OCCO4)n2)cc1 [Compound 21, N-((3-(2,3-dihydrobenzo[b][1,4]dioxin-6-yl)-1-phenyl-1H-pyrazol-4-yl)methyl)-2-(pyridin-2-yl)ethan-1-amine hydrochloride]
- EC50 at 3 days [1]: 29.1 µM
- EC50 [2]: 32 µM
- EC50 [3, 7]: < 10 µM
- EC50 [3]: 7.31 µM
- EC50 [4, 12]: < 10 µM
- EC50 ([4]; read-out: L. inf. (EC50), amastigotes in PMM, 5 days): 5.06 µM

SMILES: c1ccc(-n2cc(CNCCc3ccncc3)c(-c3ccc4c(c3)OCCO4)n2)cc1 [Compound 19, N-((3-(2,3-dihydrobenzo[b][1,4]dioxin-6-yl)-1-phenyl-1H-pyrazol-4-yl)methyl)-2-(pyridin-4-yl)ethan-1-amine hydrochloride]
- EC50 at 3 days [1]: 20.2 µM
- EC50 [2]: 32 µM
- EC50 [3, 7]: 7.46 µM
- EC50 [4, 12]: 20.3 µM
- EC50 [5, 13]: 6.27 µM
- EC50 [6, 14]: 1.72 µM

SMILES: O=C(NCc1ccccc1)c1cn(-c2ccccc2)nc1-c1ccc2c(c1)OCCO2 [Compound 32, N-benzyl-3-(2,3-dihydrobenzo[b][1,4]dioxin-6-yl)-1-phenyl-1H-pyrazole-4-carboxamide]
- EC50 at 3 days [1]: > 64 µM
- EC50 [2]: > 64 µM
- EC50 [3, 7]: 6.79 µM
- EC50 [4, 8]: 12.7 µM
- EC50 [5, 9]: 24.1 µM
- EC50 [6, 10]: 4.86 µM
